For one experiment, the target named is Carbonic anhydrase 1 (Homo sapiens, UniProt P00915).
A further experiment concerns the target Carbonic anhydrase 4 (Homo sapiens, UniProt P22748). As to the kind of experiment: Inhibitory constant against carbonic anhydrase IV.
The target of experiment [1] is T1, Carbonic anhydrase (Methanobacterium thermoautotrophicum, UniProt Q50565).
T1 sequence (Q50565 whole entry): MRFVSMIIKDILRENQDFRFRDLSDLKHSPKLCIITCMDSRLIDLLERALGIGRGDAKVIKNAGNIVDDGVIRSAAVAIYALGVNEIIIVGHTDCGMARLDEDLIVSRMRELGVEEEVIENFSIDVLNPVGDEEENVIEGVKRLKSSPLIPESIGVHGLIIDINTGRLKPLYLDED
As to the kind of experiment: Inhibitory constant against methanoarchaeon Methanobacterium thermoautotrophicum (Cab). Further details: species or system Methanothermobacter thermautotrophicus str. Delta H.

Experiment [2] addresses T2, Carbonic anhydrase (Methanosarcina thermophila, UniProt P40881).
T2 sequence (P40881 whole entry): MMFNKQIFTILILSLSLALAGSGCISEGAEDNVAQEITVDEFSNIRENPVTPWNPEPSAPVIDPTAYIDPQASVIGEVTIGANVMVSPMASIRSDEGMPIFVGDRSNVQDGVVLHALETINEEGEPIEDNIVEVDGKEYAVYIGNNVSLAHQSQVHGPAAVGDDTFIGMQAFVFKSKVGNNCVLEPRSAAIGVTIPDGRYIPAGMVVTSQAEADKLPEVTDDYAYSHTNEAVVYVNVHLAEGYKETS
It counts as functional.
Description: Inhibitory constant against Zn-Cam (Methanosarcina thermophila)

Experiment [3] addresses T1, Carbonic anhydrase. Further details: species or system Methanothermobacter thermautotrophicus str. Delta H.
Another experiment deals with Carbonic anhydrase 2 (Homo sapiens, UniProt P00918).

Where “and” joins values, the source holds several entries; their conditions need not be identical. Equal values may be shown once.

Chain of Carbonic anhydrase 1 (P00915 whole entry): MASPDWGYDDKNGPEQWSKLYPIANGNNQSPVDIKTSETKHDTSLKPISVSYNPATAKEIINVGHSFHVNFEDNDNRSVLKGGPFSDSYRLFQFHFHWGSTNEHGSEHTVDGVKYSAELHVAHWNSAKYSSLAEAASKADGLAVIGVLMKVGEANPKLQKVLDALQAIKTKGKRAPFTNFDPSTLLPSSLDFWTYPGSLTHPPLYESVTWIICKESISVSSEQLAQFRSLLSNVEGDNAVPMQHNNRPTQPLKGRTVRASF
Chain of Carbonic anhydrase 4 (P22748 whole entry): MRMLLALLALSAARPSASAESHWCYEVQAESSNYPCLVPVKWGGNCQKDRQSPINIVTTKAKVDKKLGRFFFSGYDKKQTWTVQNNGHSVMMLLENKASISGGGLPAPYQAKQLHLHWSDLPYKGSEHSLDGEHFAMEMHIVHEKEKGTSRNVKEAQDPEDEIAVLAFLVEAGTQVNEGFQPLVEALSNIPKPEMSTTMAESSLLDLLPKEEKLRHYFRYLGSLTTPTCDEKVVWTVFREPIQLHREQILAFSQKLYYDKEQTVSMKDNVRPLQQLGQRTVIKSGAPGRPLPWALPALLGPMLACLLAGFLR

Usually Ki stands for the dissociation constant of the complex between target and ligand, obtained from inhibition or displacement. The low end stands for tighter binding, the high end for weaker binding. Take `I` [IODIDE]: the Ki at Carbonic anhydrase 1 is 0.3 mM; on Carbonic anhydrase 4 it was 11 mM; on Carbonic anhydrase [1], 13.2 mM; at Carbonic anhydrase [2], 160 mM.
For `NS(=O)(=O)O` [SULFAMATE], the Ki on Carbonic anhydrase [3] stood at 44 mM; at Carbonic anhydrase 1, 0.02 mM; on Carbonic anhydrase [2], 9.6 mM.
As for `O=C(O)O` [BICARBONATE], the inhibition constant (Ki) is 44.9 mM and 9.6 mM on Carbonic anhydrase [3]; 44 mM at Carbonic anhydrase 4; 42 mM and 6.7 mM on Carbonic anhydrase [2].
In the case of `NS(N)(=O)=O` [SULFAMIDE], the inhibition constant Ki at Carbonic anhydrase [2] turned out to be 0.07 mM.
Consider `Br` [BROMIDE], for which the inhibitory constant (Ki) at Carbonic anhydrase 1 was 4 mM; on Carbonic anhydrase 4, 52 mM; at Carbonic anhydrase [1], 42.1 mM; on Carbonic anhydrase [2] it was 160 mM.
Take `S` [HYDROGEN SULFIDE]: the Ki worked out at 0.7 mM at Carbonic anhydrase [3], 0.0006 mM at Carbonic anhydrase 1 and 0.05 mM on Carbonic anhydrase [2].
With `O[B-](O)(O)c1ccccc1` [OXO(PHENYL)-BORANEDIOL], the Ki at Carbonic anhydrase [3] was found to be 0.33 mM; on Carbonic anhydrase 1 it was 31.7 mM; at Carbonic anhydrase 2, 49.2 mM; on Carbonic anhydrase [2], 0.15 mM.
As for `OB(O)c1ccccc1` [PHENYLBORONIC ACID], the values for the Ki on Carbonic anhydrase [3], on Carbonic anhydrase 1 and on Carbonic anhydrase [2] were 0.2 mM, 58.6 mM and 0.23 mM, respectively.
On Carbonic anhydrase [2], `N#CS` [THIOCYANIC ACID] came in with a Ki of 7 mM.
On to `Cl` [HYDROCHLORIC ACID], for which the Ki on Carbonic anhydrase 1 was 6 mM; at Carbonic anhydrase 4 it was 36 mM; at Carbonic anhydrase [1], 152 mM; at Carbonic anhydrase [2], over 200 mM.
For `O=NO` [NITROUS ACID], the Ki on Carbonic anhydrase [3] turned out to be 44.8 mM; on Carbonic anhydrase [2], 6.8 mM.
On to `O=S(=O)(O)O` [SULFURIC ACID], for which the Ki on Carbonic anhydrase 4 was 44 mM.
As to `O=[N+]([O-])O` [NITRIC ACID], the inhibition constant Ki is 7.8 mM at Carbonic anhydrase [3], 7 mM at Carbonic anhydrase 1 and 36.5 mM at Carbonic anhydrase [2].
